Experimental data taken from patent publication US20050221328A1, “Inhibitors of inflammatory gene activity and cholesterol biosynthesis” (Wyeth, priority 2002, published 2005).

How the values were obtained:
[1] = tested on: ICAM-1; assay: Hepatic mRNA levels after single oral dose of GW 4064 in C57BL/6 mice; type: in vivo, mouse; conditions: single oral dose 50 mg/kg, hepatic mRNA (FIG. 25)
[2] = tested on: HepG2 cells; assay: Gene expression in HepG2 cells treated 24 hr with CDCA or GW 4064; type: cell-based, human
Description: HepG2 cells were maintained in growth media at 37° C. in a 5% CO2 incubator. The cells were seeded in deficient growth media (phenol red free DMEM (Gibco BRL) supplemented with heat-inactivated 10% FBS, 1% Glutamax, 1% MEM non-essential amino acids, 100 U/ml penicillin and 100 μg/ml streptomycin) at 4-5×10^5 cells per well in a 6 well dish (Falcon). The cells were then placed into serum deficient media for 24 hr before addition of the compounds for an additional 24 hrs. The cells were then harvested for RNA analysis.
To further investigate the possibility that bile acid signaling through FXR can promote inflammatory gene expression, experiments were conducted in the hepatocyte cell line, HepG2. […] HepG2 cells express a number of inflammatory genes including ICAM-1 and M-CSF constitutively (Stonans et al '99 Cytokine 11:151). […] As positive controls, the induction of SHP mRNA and the repression of cyp7a were confirmed.
Referring to FIG. 24a-b, HepG2 cells were treated for 24 hr with increasing concentrations of chenodeoxycholic acid (CDCA). […] Data are reported as mean±SEM for each group. C57BL/6 mice. […] Data are reported as mean±SEM for each group.

[3] = tested on: human ICAM-1 promoter; assay: ICAM-1 promoter luciferase reporter in HepG2 cells transfected with human FXR and RXRα; type: cell-based; conditions: HepG2 transfections, GW 4064 1 uM, 24 or 48 hr; required proximal NF-κB response element
Excerpt: Referring to FIG. 26, HepG2 cells were transfected with the human FXR and RXRα expression plasmid and luciferase reporter plasmids containing the proximal promoter region of the human SHP (−360 to +40) or sequential deletions of the human ICAM-1 promoter (−1108 or −810 to +18). […] Data represent the mean+S.D. of three independent transfections.

[4] = HepG2, 24 hr, CDCA 1-100 uM or GW 4064 1-1000 nM

CC(C)c1onc(-c2c(Cl)cccc2Cl)c1COc1ccc(/C=C/c2cccc(C(=O)O)c2)c(Cl)c1 [GW 4064]
ICAM-1 expression in vivo [1]: induces | EC50 observed for ICAM-induction vs cited FXR EC50 ([2]; HepG2): comparable | ICAM-1 expression [2, 4]: induced in a dose dependent manner | M-CSF expression [2, 4]: induced in a dose dependent manner | SHP mRNA ([2]; HepG2, 24 hr, positive control): induction | cyp7a expression ([2]; HepG2, 24 hr, positive control): repression | ICAM-1 promoter activity [3]: stimulated
